Reference: US11530206B2, “Phenylaminopyrimidine amide autophagy inhibitors and methods of use thereof” (Deciphera Pharmaceuticals, LLC, priority 2019, dated 2022)

Columns and labels:
ULK1 kinase = target: T1, ULK1 kinase (Homo sapiens, UniProt O75385, E37A/K38A); test: Biochemical assay for ULK1.3 (coupled pyruvate kinase/lactate dehydrogenase assay, peptide substrate); conditions: 0.1 nM ULK1 (residues 1-283), 1 mM ATP
T1 construct: purchased Beryllium
T1 sequence (O75385 1-283 E37A/K38A): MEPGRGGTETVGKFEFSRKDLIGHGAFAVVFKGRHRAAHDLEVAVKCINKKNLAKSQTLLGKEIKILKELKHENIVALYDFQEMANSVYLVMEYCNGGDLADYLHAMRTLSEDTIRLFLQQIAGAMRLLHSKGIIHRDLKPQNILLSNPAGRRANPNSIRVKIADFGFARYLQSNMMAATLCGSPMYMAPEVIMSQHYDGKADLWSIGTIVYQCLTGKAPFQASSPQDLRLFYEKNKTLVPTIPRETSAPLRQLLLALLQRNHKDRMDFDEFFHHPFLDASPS
Experimental: Biochemical Assay for ULK1.3 (SEQ. ID NO: 2)
Inhibition of ULK1 was measured by adding serial diluted test compound (final assay concentration of 1% DMSO). A decrease in absorption at 340 nm was monitored continuously for 6 hours at 30° C. on a multi-mode microplate reader (BioTek). The reaction rate was calculated using the 2-3 h time frame. The reaction rate at each concentration of compound was converted to percent inhibition using controls (i.e. reaction with no test compound and reaction with a known inhibitor) and IC50 values were calculated using software routines in Prism (GraphPad software).

ULK kinase [1] = test: pATG13 levels of mutant KRas MiaPaCa-2 cells after treatment with ULK inhibitors in combination with trametinib (ELISA); assay type: cell-based, human; conditions: MiaPaCa-2 pancreatic cancer cells, 250 nM trametinib, overnight, pS318-ATG13
Experimental: (§1) MiaPaCa-2 human pancreatic cancer cells (10000 cells/well) were added to a 384-well tissue-culture treated plate in 50 μL of pre-warmed DMEM medium supplemented with 10% characterized fetal bovine serum (Invitrogen, Carlsbad, Calif.), 100 units/mL penicillin G, 100 µg/mL streptomycin, and 2.5% Horse Serum and allowed to grow overnight at 37° C., 5% CO2, and 95% humidity. The following day, 10 μL of media containing trametinib or DMSO as a control was added to wells. […] A dose response of a test compound (0.6 μL per well) was added. DMSO (0.6 μL) was added to control wells. The plate was briefly shaken to mix wells and then incubated at 37° C. overnight. The next day, the media was aspirated and cells were washed with Dulbecco's Phosphate Buffered Saline (Gibco). Cells were lysed using MPER lysis buffer (Pierce, Rockford, Ill.) containing Halt Phosphatase and Protease Inhibitors (Pierce, Rockford, Ill.) and Phosphatase inhibitor cocktail 2 (Sigma, St. Louis, Mo.) at 4° C. for 10 minutes with shaking.
(§2) Plate wells were washed with ELISA wash buffer. Cell lysate was added to wells and incubated at room temperature for 2 hours. Plate wells were washed with ELISA wash buffer. […] Plate wells were washed with ELISA wash buffer. […] Plate wells were washed with ELISA wash buffer. […] The reaction was stopped with 2N Sulfuric Acid. The plate was analyzed at on a plate reader measuring absorbance at 450 nm and 540 nm (background). Signal was calculated by first subtracting the background absorbance at 540 nm from the absorbance at 450 nm for each well. Next, the background corrected absorbance at 450 nm from blank wells was subtracted from test wells. Data was compared to control wells to determine % ATG13 phosphorylation. GraphPad Prism was used to calculate IC50 values.

ULK kinase [2] = test: pATG13 levels of mutant KRas A549 cells after treatment with ULK inhibitors in combination with trametinib (ELISA); assay type: cell-based, human; conditions: A549 (KRAS mutant) lung cancer cells, 250 nM trametinib, overnight, pS318-ATG13
Experimental: Cellular Inhibition of ULK Kinase Substrate ATG13 Protein pATG13 Levels of Mutant KRas A549 Cells after Treatment with ULK Inhibitors in Combination with Trametinib
as §1, with “A549 (KRAS mutant)” for “MiaPaCa-2”, “lung” for “pancreatic”, “(6,000” for “(10000”, “G, and” for “G,”, “μg/mL streptomycin” for “µg/mL streptomycin, and 2.5% Horse Serum”
as §2

| SMILES | IC50 (ULK1 kinase) [nM] | IC50 (ULK kinase [1]) [nM] | IC50 (ULK kinase [2]) [nM] |
| --- | --- | --- | --- |
| CCN1CCN(c2ccc(Nc3ncc(Cl)c(NCCCN4CCCCC4=O)n3)c(C(C)C)c2)CC1 [Example 29] | 100 to 500 |  |  |
| CCc1cc(N2CCN(C)CC2)ccc1Nc1ncc(C2CC2)c(NCCCN2CCCOC2=O)n1 [Example 45] | 100 to 500 |  |  |
| CCc1cc(N2CCCN(C)CC2)ccc1Nc1ncc(C(F)(F)F)c(NCCCN2CCCOCC2=O)n1 [Example 63] | 25 to 100 |  |  |
| CC(C)c1cc(N2CCN(C)CC2)ccc1Nc1ncc(Br)c(NCCCN2CCCOCC2=O)n1 [Example 77] | 25 to 100 |  |  |
| CCc1cc(N2CCN(C)CC2)ccc1Nc1ncc(Cl)c(NCCCN2CCOCCC2=O)n1 [Example 80] | 25 to 100 | 100 to 300 | > 600 |
| CCc1cc(N2CCN(C)CC2)ccc1Nc1ncc(C2CC2)c(NCCCN2CCOCCC2=O)n1 [Example 83] | > 500 |  |  |
| O=C1CCOCCN1CCCNc1nc(Nc2ccc(N3CCNCC3)cc2C2CC2)ncc1Cl [Example 89] | 100 to 500 |  |  |
| CN1CCN(c2ccc(Nc3cc(NCCCN4CCCCC4=O)c(C(F)(F)F)cn3)c(C3CC3)c2)CC1 [Example 94] | 25 to 100 |  |  |
| CN1CCN(c2ccc(Nc3cc(NCCCN4CCCCC4=O)c(C(F)(F)F)cn3)nc2)CC1 [Example 97, 1-(3-((2-((5-(4-methylpiperazin-1-yl)pyridin-2-yl)amino)-5-(trifluoromethyl)pyridin-4-yl)amino)propyl)piperidin-2-one] | 100 to 500 |  |  |
| CN1CCN(c2ccc(Nc3cc(NCCCN4CCOCCC4=O)c(Cl)cn3)c(C3CC3)c2)CC1 [Example 104] | 100 to 500 |  |  |
| CN1C2CCC1CN(c1ccc(Nc3ncc(C(F)(F)F)c(NCCCN4CCOCCC4=O)n3)c(C3CC3)c1)C2 [Example 133] | 100 to 500 |  |  |
| CN1CCN(c2ccc(Nc3ncc(C(F)(F)F)c(NCCCN4CCOCCC4=O)n3)c(C(C)(C)O)c2)CC1 [Example 134] | > 500 |  |  |
| CN1CCN(c2ccc(Nc3ncc(C(F)(F)F)c(NCCCN4CCCOC4=O)n3)c(C(C)(C)O)c2)CC1 [Example 135] | 100 to 500 |  |  |
| CCc1cc(N2CC3CCC(C2)N3C)ccc1Nc1ncc(C(F)(F)F)c(NCCCN2CCCOCC2=O)n1 [Example 138] | 100 to 500 |  |  |
| CCc1cc(N2CC3CCC(C2)N3C)ccc1Nc1ncc(C(F)(F)F)c(NCCCN2CC(C)(C)C2=O)n1 [Example 139] | > 500 |  |  |
| CCc1cc(N2CC3CCC(C2)N3C)ccc1Nc1ncc(C(F)(F)F)c(NCCCN2CCC(C)(C)OC2=O)n1 [Example 140] | 100 to 500 |  |  |
| CCc1cc(N2CCN(C)CC2)ccc1Nc1ncc(C(F)(F)F)c(NCCCN2CC(C)(C)C2=O)n1 [Example 141] | 25 to 100 |  |  |
| CCc1cc(C2CCN(C)CC2)ccc1Nc1ncc(C(F)(F)F)c(NCCCN2CCOCCC2=O)n1 [Example 146] | 25 to 100 |  |  |

The next lines start with the values.

| IC50 (ULK1 kinase) [nM] | IC50 (ULK kinase [1]) [nM] | IC50 (ULK kinase [2]) [nM] | SMILES |
| --- | --- | --- | --- |
| 25 to 100 |  |  | CC(C)c1cc(N2CCN(C)CC2)ccc1Nc1ncc(Br)c(NCCCN2CCCCC2=O)n1 [Example 15] |
| 1 to 25 |  |  | CN1CCCN(c2ccc(Nc3ncc(C(F)(F)F)c(NCCCN4CCCCC4=O)n3)c(C3CC3)c2)CC1 [Example 24] |
| 1 to 25 | 10 to 100 | 100 to 300 | CN1CCN(c2ccc(Nc3ncc(Br)c(NCCCN4CCCCC4=O)n3)c(C3CC3)c2)CC1 [Example 26] |
| 25 to 100 | 100 to 300 | 100 to 300 | CN1CCN(c2ccc(Nc3ncc(Cl)c(NCCCN4CCCCC4=O)n3)c(C3CC3)c2)CC1 [Example 27] |
| 1 to 25 | 100 to 300 | 100 to 300 | CCN1CCN(c2ccc(Nc3ncc(C(F)(F)F)c(NCCCN4CCCCC4=O)n3)c(C(C)C)c2)CC1 [Example 28] |
| 25 to 100 | 100 to 300 | 300 to 600 | CCN1CCN(c2ccc(Nc3ncc(Br)c(NCCCN4CCCCC4=O)n3)c(C(C)C)c2)CC1 [Example 30] |
| 1 to 25 | 100 to 300 | 300 to 600 | CCc1cc(N2CCCN(C)CC2)ccc1Nc1ncc(C(F)(F)F)c(NCCCN2CCCCC2=O)n1 [Example 31] |
| 25 to 100 | > 600 | > 600 | CC(=O)N1CCN(c2ccc(Nc3ncc(C(F)(F)F)c(NCCCN4CCCCC4=O)n3)c(C3CC3)c2)CC1 [Example 36, 1-(3-((2-((4-(4-acetylpiperazin-1-yl)-2-cyclopropylphenyl)amino)-5-(trifluoromethyl)pyrimidin-4-yl)amino)propyl)piperidin-2-one] |
| 1 to 25 |  |  | CN1CCN(c2ccc(Nc3ncc(C(F)(F)F)c(NCCCN4CCCCCC4=O)n3)c(C3CC3)c2)CC1 [Example 38] |
| 1 to 25 | 10 to 100 | 10 to 100 | CN1CCN(c2ccc(Nc3ncc(Br)c(NCCCN4CCCOC4=O)n3)c(C3CC3)c2)CC1 [Example 40] |
| 1 to 25 | 10 to 100 | 10 to 100 | O=C1OCCCN1CCCNc1nc(Nc2ccc(N3CCN4CCC[C@@H]4C3)cc2C2CC2)ncc1C(F)(F)F [Example 42] |
| 25 to 100 |  |  | CCc1cc(N2CCN(C)CC2)ccc1Nc1ncc(Cl)c(NCCCN2CCCOC2=O)n1 [Example 43] |
| 1 to 25 | 10 to 100 | 10 to 100 | CCc1cc(N2CCN(C)CC2)ccc1Nc1ncc(Br)c(NCCCN2CCCOC2=O)n1 [Example 44] |
| 25 to 100 |  |  | CCc1cc(N2CCN(C)CC2)ncc1Nc1ncc(C(F)(F)F)c(NCCCN2CCCOCC2=O)n1 [Example 53] |
| 1 to 25 | 10 to 100 | 100 to 300 | O=C1COCCCN1CCCNc1nc(Nc2ccc(N3CCNCC3)cc2C2CC2)ncc1C(F)(F)F [Example 62] |
| 1 to 25 | 100 to 300 | 100 to 300 | CCc1cc(N2CCN(C)CC2)ncc1Nc1ncc(C(F)(F)F)c(NCCCN2CCOCCC2=O)n1 [Example 67] |
| 1 to 25 | 10 to 100 | 100 to 300 | CN1CCN(c2ccc(Nc3ncc(Br)c(NCCCN4CCOCCC4=O)n3)c(C3CC3)c2)CC1 [Example 81] |
| 1 to 25 |  |  | CCc1cc(N2CCN3CCC[C@H]3C2)ccc1Nc1ncc(C(F)(F)F)c(NCCCN2CCCOC2=O)n1 [Example 121] |
| 1 to 25 |  |  | CCc1cc(N2CCN(C)CC2)ncc1Nc1ncc(C(F)(F)F)c(NCCCN2CCCOC2=O)n1 [Example 128] |
| 1 to 25 |  |  | CN(C)C1CN(c2ccc(Nc3ncc(C(F)(F)F)c(NCCCN4CCOCCC4=O)n3)c(C3CC3)c2)C1 [Example 136] |
| 1 to 25 |  |  | CCc1cc(N2CCN(C)CC2)ccc1Nc1ncc(C(F)(F)F)c(NCCCN2CCOCC(C)(C)C2=O)n1 [Example 142] |
| 1 to 25 |  |  | CCc1cc(C2CCN(C)C2)ccc1Nc1ncc(C(F)(F)F)c(NCCCN2CCOCCC2=O)n1 (stereo not shown) [Example 143] |
| 1 to 25 |  |  | CCc1cc(N2CC[C@@H](N(C)C)C2)ccc1Nc1ncc(C(F)(F)F)c(NCCCN2CCOCCC2=O)n1 [Example 144] |
| 1 to 25 |  |  | CCc1cc(N2CC[C@H](N(C)C)C2)ccc1Nc1ncc(C(F)(F)F)c(NCCCN2CCOCCC2=O)n1 [Example 145] |
| 1 to 25 |  |  | CN(C)CC1CN(c2ccc(Nc3ncc(C(F)(F)F)c(NCCCN4CCCCC4=O)n3)c(C3CC3)c2)C1 [Example 151] |
| 1 to 25 |  |  | CCc1cc(N2CC(CN(C)C)C2)ccc1Nc1ncc(C(F)(F)F)c(NCCCN2CCOCCC2=O)n1 [Example 152] |
